The structures appear in SMILES notation.

A short description of the assay: Ratio of kinetic parameters Vmax to the of Km.

Turning to `Nc1ncnc2c1ncn2[C@@H]1O[C@H](CO)[C@@H](O)[C@H]1O`, the Ratio is 15.
Then `Nc1nc(F)nc2c1ncn2[C@@H]1O[C@H](CO)[C@@H](O)[C@@H]1O`, with 0.0096; and `Nc1nc(N)c2ncn([C@@H]3O[C@H](CO)[C@@H](O)[C@H]3O)c2n1`, with 3.6.

The record behind these values is ChEMBL document CHEMBL1123068, “2-Fluoroformycin and 2-aminoformycin. Synthesis and biological activity” (J Med Chem, 1985).
